# Several values for one entry are separate records, joined by “and”; a condition that tells them apart may be missing. Equal entries are not always repeated. Where two headings read alike, the source gives them in different places. Marks after values point to notes of the source that are not given here.
# Test system: S. Typhimurium
# Details: for Populations of S. Typhimurium, treated / Reductions of S. Typhimurium: with cold plasma
# Source text: To minimize the risk of possible bacteria becoming airborne during treatments, attenuated and non-pathogenic bacteria were used in the study. Two strains of non-pathogenic S. Typhimurium (ATCC 53647 and 53648) and three strains of L. innocua (ATCC 33090, ATCC 51742 and ATCC BAA680) were obtained from American Type Culture Collection (ATCC) (Manassas, Va., USA). Further studies used E. coli O157:H7 (ATCC 700728), S. Typhimurium (ATCC 53647 and 53648), and L. innocua (ATCC 33090) obtained from American Type Culture Collection (ATCC) (Manassas, Va., USA) and maintained as a part of the culture collection at the USDA Eastern Regional Research Center (Wyndmoor, Pa. USA). The bacteria were made to be resistant to nalidixic acid by successive growth in Trypic Soy Broth (TSB) (Difco, Sparks, Md., USA) with increasing nalidixic acid concentrations. All strains were stored at −80° C. in 1 mL of TSB containing 10% glycerol. Working cultures of S. Typhimurium and L. innocua were maintained in 9 mL TSB (supplemented with 100 μg/mL nalidixic acid for S. Typhimurium) at 4° C. after incubating at 37° C. for […], respectively, and sub-cultured each time.
# Each strain of S. Typhimurium and L. innocua was cultured in 9 mL TSB (supplemented with 100 μg/mL nalidixic acid for S. Typhimurium) and incubated at 37° C. for 40 h and 48 h, respectively, harvested by centrifugation at 4000×g for 10 min at 4° C., and resuspended in 9 mL sterile Buffered Peptone Water (BPW; Difco). The pellets were resuspended in BPW to form cell suspensions with a final concentration of 108˜10^9 CFU/mL. Subsequently, suspended pellets of two strains of Salmonella and three strains of L. innocua were combined to obtain two separate culture cocktails.
# Grape tomatoes, granny smith apples, romaine lettuce and cantaloupes were purchased from local markets (Philadelphia, Pa., USA) and kept at 10° C. prior to use. Fruits and vegetables were removed from 10° C. refrigeration and equilibrated to ambient temperature before being inoculated. Romaine lettuce was divided into upper green leaf and midrib tissues. Six tomatoes, six pieces (2×2 cm) of apple skins, five pieces (3×3 cm) of Romaine lettuce upper leaves, five pieces (3 cm length) of Romaine lettuce midrib area and six pieces (2×2 cm) of cantaloupe rinds with 2×3 mm thickness of flesh were used for each treatment per replicate. Bach piece w as spot inoculated with 10 μL of Salmonella and L. innocua by depositing droplets with a micropipette. The inoculated samples were dried in a bio-hood for 1 h (for tomato surfaces, romaine lettuce, apple skins and cantaloupe rinds) or 2 h (for tomato stem scars) at ambient temperature.
# Produce items were placed onto a sterile test tube rack with the inoculated area facing up and the rack with produce pieces were placed inside of a treatment chamber (12×12×24 inch).
# For tomato surfaces and apple skins, the treatment times (spray times) were set as 5, 8 and 10 s followed by 30 min dwell time. For upper leaves and midrib tissues of Romaine lettuce, the treatment times were 10, 20, 30 and 60 s followed by 30 min dwell time. For cantaloupe rinds, the treatment times were set as 10, 30 and 60 s followed by 30 min dwell time. For tomato stem scars, the treatment procedure included 5.8, 10, 20, 30, 60 s followed by 30 min dwell time, 6 cycles composed of 10 s treatment time followed by 10 min dwell time per cycle, and 3 cycles composed of 20 s treatment time followed by 20 min dwell time per cycle. A fan (E.Z.FAN, FP-108-1, Common Wealth Industrial Corp., Taiwan) was used in the chamber to facilitate the uniform distribution of mist during dwell time.
# After each treatment, the tomato stem scars and surfaces with the inoculated bacteria were removed using a pair of sterile scissors.
# [1] = Granny Smith apple skins, treatment time 5 s + 30 min dwell
# [2] = Romaine lettuce leaves (upper leaf), treatment time 10 s + 30 min dwell
# [3] = Romaine lettuce leaves (upper leaf), treatment time 20 s + 30 min dwell
# [4] = Romaine lettuce leaves (upper leaf), treatment time 60 s + 30 min dwell
# [5] = Romaine lettuce midrib area, treatment time 10 s + 30 min dwell
# [6] = Romaine lettuce midrib area, treatment time 20 s + 30 min dwell
# [7] = Romaine lettuce midrib area, treatment time 60 s + 30 min dwell
# [8] = cantaloupe rinds, treatment time 10 s + 30 min dwell
# [9] = cantaloupe rinds, treatment time 60 s + 30 min dwell
# [10] = grape tomato stem scars, 10s × 6 (6 cycles of 10 s spray time followed by 10 min dwell time)
# [11] = grape tomato stem scars, treatment time 8 s + 30 min dwell
# [12] = grape tomato stem scars, treatment time 10 s + 30 min dwell
# [13] = grape tomato stem scars, treatment time 20 s + 30 min dwell
# [14] = grape tomato stem scars, treatment time 30 s + 30 min dwell
# [15] = grape tomato surfaces, treatment time 5 s + 30 min dwell
smiles,measurement,setting,value
"OO [H2O2, hydrogen peroxide]","Populations of S. Typhimurium, treated",[1],4.09 ± 0.13^a log CFU/piece
same,Reductions of S. Typhimurium,[1],1.63 ± 0.35^b log CFU/piece
same,"Populations of S. Typhimurium, treated","Granny Smith apple skins, treatment time 8 s + 30 min dwell, ND: not detectable (detection limit 0.70 log CFU/piece)",< 0.70 log CFU/piece
same,Reductions of S. Typhimurium,"Granny Smith apple skins, treatment time 8 s + 30 min dwell, listed as hydrogen peroxide (H2O2) with cold plasma",more than 5 log CFU/piece
same,Reductions of S. Typhimurium,"Granny Smith apple skins, treatment time 8 s + 30 min dwell, listed as ionized hydrogen peroxide",> 5 log CFU/piece
same,"Populations of S. Typhimurium, treated",[2],5.45 ± 0.34^a log CFU/piece
same,Reductions of S. Typhimurium,[2],0.79 ± 0.16^c log CFU/piece
same,"Populations of S. Typhimurium, treated",[3],3.98 ± 0.37^b log CFU/piece
same,Reductions of S. Typhimurium,[3],1.98 ± 0.24^b log CFU/piece
same,"Populations of S. Typhimurium, treated","Romaine lettuce leaves (upper leaf), treatment time 30 s + 30 min dwell",3.54 ± 0.11^b log CFU/piece
same,Reductions of S. Typhimurium,"Romaine lettuce leaves (upper leaf), treatment time 30 s + 30 min dwell, listed as ionized hydrogen peroxide",2.86 log CFU/piece and 2.86 ± 0.17^a log CFU/piece
same,"Populations of S. Typhimurium, treated",[4],3.57 ± 0.25^b log CFU/piece
same,Reductions of S. Typhimurium,[4],2.79 ± 0.20^a log CFU/piece
same,"Populations of S. Typhimurium, treated",[5],4.81 ± 0.22^a log CFU/piece
same,Reductions of S. Typhimurium,[5],1.53 ± 0.23^c log CFU/piece
same,"Populations of S. Typhimurium, treated",[6],4.09 ± 0.25^b log CFU/piece
same,Reductions of S. Typhimurium,[6],2.04 ± 0.33^b log CFU/piece
same,"Populations of S. Typhimurium, treated","Romaine lettuce midrib area, treatment time 30 s + 30 min dwell",2.54 ± 0.32^c log CFU/piece
same,Reductions of S. Typhimurium,"Romaine lettuce midrib area, treatment time 30 s + 30 min dwell, listed as ionized hydrogen peroxide",3.63 log CFU/piece and 3.63 ± 0.21^a log CFU/piece
same,"Populations of S. Typhimurium, treated",[7],2.94 ± 0.18^c log CFU/piece
same,Reductions of S. Typhimurium,[7],3.13 ± 0.48^a log CFU/piece
same,"Populations of S. Typhimurium, treated",[8],4.39 ± 0.32^a log CFU/piece
same,Reductions of S. Typhimurium,[8],1.50 ± 0.21^b log CFU/piece
same,"Populations of S. Typhimurium, treated","cantaloupe rinds, treatment time 30 s + 30 min dwell",4.09 ± 0.24^a log CFU/piece
same,Reductions of S. Typhimurium,"cantaloupe rinds, treatment time 30 s + 30 min dwell, listed as ionized hydrogen peroxide",2.48 log CFU/piece and 2.48 ± 0.68^a log CFU/piece
same,"Populations of S. Typhimurium, treated",[9],3.23 ± 0.28^b log CFU/piece
same,Reductions of S. Typhimurium,[9],2.44 ± 0.32^a log CFU/piece
same,"Populations of S. Typhimurium, treated",[10],3.89 ± 0.39^ab log CFU/piece
same,Reductions of S. Typhimurium,[10],2.19 ± 0.41^b log CFU/piece
same,"Populations of S. Typhimurium, treated","grape tomato stem scars, listed as printed 20s × 6 (title: 20s×3, 3 cycles of 20 s spray time with 20 min dwell time)",3.60 ± 0.42^b log CFU/piece
same,Reductions of S. Typhimurium,"grape tomato stem scars, listed as printed 20s × 6 (title: 20s×3, 3 cycles of 20 s spray time with 20 min dwell time), listed as ionized hydrogen peroxide",2.73 log CFU/piece and 2.73 ± 0.28^a log CFU/piece
same,"Populations of S. Typhimurium, treated","grape tomato stem scars, treatment time 5 s + 30 min dwell",4.26 ± 0.89^ab log CFU/piece
same,Reductions of S. Typhimurium,"grape tomato stem scars, treatment time 5 s + 30 min dwell, listed as ionized hydrogen peroxide",1.06 log CFU/piece and 1.06 ± 0.35^d log CFU/piece
same,"Populations of S. Typhimurium, treated",[11],4.23 ± 0.31^ab log CFU/piece
same,Reductions of S. Typhimurium,[11],1.22 ± 0.28^d log CFU/piece
same,"Populations of S. Typhimurium, treated",[12],4.26 ± 0.71^ab log CFU/piece
same,Reductions of S. Typhimurium,[12],1.20 ± 0.14^d log CFU/piece
same,"Populations of S. Typhimurium, treated",[13],4.71 ± 0.26^ab log CFU/piece
same,Reductions of S. Typhimurium,[13],1.51 ± 0.34^cd log CFU/piece
same,"Populations of S. Typhimurium, treated",[14],4.31 ± 0.20^a log CFU/piece
same,Reductions of S. Typhimurium,[14],1.85 ± 0.11^bc log CFU/piece
same,"Populations of S. Typhimurium, treated","grape tomato stem scars, treatment time 60 s + 30 min dwell",3.85 ± 0.66^ab log CFU/piece
same,Reductions of S. Typhimurium,"grape tomato stem scars, treatment time 60 s + 30 min dwell, listed as ionized hydrogen peroxide",2.16 log CFU/piece and 2.16 ± 0.43^b log CFU/piece
same,"Populations of S. Typhimurium, treated",[15],4.44 ± 0.25^a log CFU/piece
same,Reductions of S. Typhimurium,[15],1.84 ± 0.43^b log CFU/piece
same,"Populations of S. Typhimurium, treated","grape tomato surfaces, treatment time 8 s + 30 min dwell, ND: not detectable (detection limit 0.70 log CFU/piece)",< 0.70 log CFU/piece
same,Reductions of S. Typhimurium,"grape tomato surfaces, treatment time 8 s + 30 min dwell, listed as hydrogen peroxide (H2O2) with cold plasma",more than 5 log CFU/piece
same,Reductions of S. Typhimurium,"grape tomato surfaces, treatment time 8 s + 30 min dwell, listed as ionized hydrogen peroxide",> 5 log CFU/piece
same,Reductions of S. Typhimurium,"grape tomato surfaces, treatment time 10 s + 30 min dwell",5.65 ± 0.21^a log CFU/piece
same,log reduction of Salmonella on other fresh produce items,"produce other than smooth surfaces of tomatoes and apples, applied for a longer time period",≤ 3.6 log
same,log reductions of Salmonella on rough surfaces,"rough surfaces (tomato stem scars, cantaloupe rinds), similar treatment times",2.8-3.6 log
same,log reductions of Salmonella on smooth surfaces,"smooth surfaces (apples, tomatoes), 8-10 s treatment time + 30 min dwell time",greater than 5 log

# From US20200345021A1, “METHOD AND SYSTEM FOR ENHANCING THE EFFICACY USING IONIZED/A[…] PEROXIDE IN REDUCING MICROBIAL POPULATIONS, METHOD OF USE THEREOF” (priority 2019, published 2020)
